“Also recorded” adds a separate entry of the source.
Experiments:
[1] = tested on: Drosophila salivary gland polytene chromosome; assay: Removal of DNA binding stains from polytene chromosome bands by xanthine wash; design: species or system Drosophila melagaster; details: for Re-staining following Xanthine Exposure / Staining before Xanthine Exposure: 1 mM stain, 30 minutes; for Degree of Stain Removal, Exposure to AM (100 mM) / Degree of Stain Removal, Exposure to CAF (100 mM): 15 minute wash, static
Protocol: In another implementation, giant polytene chromosomes were prepared by the squash technique from the salivary gland of Drosophila melagaster larva The salivary gland was placed on a microscope slide, squashed with a glass cover slide, fixed with acidic acid, rinsed with distilled water, and allowed to dry (kindly provided by Linda Chadwell, UTHSCSA-IBT). Three known DNA intercalators, ethidium bromide (98% purity, Aldrich Chemical Company, Milwaukee, Wis.), doxorubicin (98%, Sigma Chemnical Company, St. Louis, Mo.), and acridine orange plus the minor groove binding DNA stain Hoechst 33258 (98%, ACROS Chemical Company, NJ) were prepared in distilled water at a concentration of 1 mM (for chemical structures see FIG. 4-1, where acridine orange (3,6-bis [dimethylamino] acridine) is shown in Panel A, ethidium bromide is shown in Panel B, doxorubicin is shown in Panel C, Hoechst 33258 is shown in Panel D). The slides with prepared chromosomes were immersed in these stains for a period of 30 minutes, rinsed with distilled water, and dried at room temperature. Fluorescence microscopic analysis was conducted at λex 360 nm and photomicrographs were conducted on a Zeiss Model 63 Microscope with a xenon source fluorescent emitter. Photomicrographs were taken using Kodak Gold 35 mm ASA 1600 speed film noting the position of one individual chromosome on the slide. The stained slides were then subjected to 100 mM caffeine or 100 mM aminophylline under static conditions for a period of 15 minutes, rinsed with distilled water, then allowed to dry at room temperature. The presence of the same individual unstained chromosome in the field was confirmed by phase contrast microscopy. The chromosome was viewed again under fluorescence microscopy at […], and color recorded. Slides were re-stained by immersion in the 1 mM stain for a period of 30 minutes, rinsed with distilled water, and dried at room temperature, and the same individual chromosome was examined by fluorescence microscopy and the fluorescence color recorded.
FIG. 4-3 depicts three photomicrographs of the same Drosophila polytene chromosome: after staining with the DNA minor groove binder Hoechst 33258 dye (Panel A), after rinsing with CAF for 15 minutes (Panel B), and a phase contrast verification of the presence of the chromosome after the CAF rinse (Panel C). Table 4-4 summarizes the results from the experiments using caffeine (CAF) and aminophylline (AM) to remove the following DNA intercalators: doxorubicin, ethidium bromide, acridine orange, and the DNA minor groove binder Hoechst 33258 from their binding sites within polytene chromosomes. […] With all DNA intercalators, the staining of chromosome bands was intense before the xanthine rinses and was again intense following re-staining.

[2] = Optical absorbance titration of chlorophyllin with acridine orange; format: binding; details: AO:chlorophyllin ratio between 0.1 and 30
From the text: The invention is not limited to the use of xanthines as interceptor molecules. For example, chlorophyllin and porphyrins may be used as a binding agent to intercalator molecules. FIG. 2-3 shoes the optical absorbance spectra titrating cholorphyllin with increasing concentraitons of acridine orange. The selected spectra denoting important transitions within the titration series are denoted by the bold lines. At AO:chlorophyllin ratio between 0.1 and 30, prevalent peaks occur at λabs of 415 nm for chlorophyllin, 475 nm, and 492 nm. These later peaks correspond to the prevalent absorbance peaks found at concentrations of AO at 10 μM and higher concentrations. […] Thus, other compounds may be used as interceptors such as, but not limited to porphyrins, purines, pyrimidines, polynucleotides and uric acid.

[3] = Absorbance binding spectra of doxorubicin titrated with caffeine or chlorophyllin; details: 10 μM doxorubicin

COc1cccc2c1C(=O)c1c(O)c3c(c(O)c1C2=O)C[C@@](O)(C(=O)CO)C[C@@H]3O[C@H]1C[C@H](N)[C@H](O)[C@H](C)O1 [Doxorubicin, doxorubicin]
Re-staining following Xanthine Exposure [1]: Complete
Staining before Xanthine Exposure [1]: Banding
Degree of Stain Removal, Exposure to AM (100 mM) [1]: Moderate
Degree of Stain Removal, Exposure to CAF (100 mM) [1]: completely removed; also recorded: Complete
Degree of Stain Removal, Exposure to AM (100 mM) ([1]; listed as doxorubicin): only moderately removed

CN1CCN(c2ccc3[nH]c(-c4ccc5[nH]c(-c6ccc(O)cc6)nc5c4)nc3c2)CC1 [Hoechst 33258]
Re-staining following Xanthine Exposure [1]: Complete
Staining before Xanthine Exposure [1]: Banding
Degree of Stain Removal, Exposure to AM (100 mM) [1]: apparently complete removal
Degree of Stain Removal, Exposure to CAF (100 mM) [1]: apparently complete removal

chlorophyllin
complexation with acridine orange [2]: complexes with acridine orange
binding to doxorubicin [3]: doxorubicin can be bound to chlorophyllin

Source: US7662767B2, “Polynucleotide intercalator interceptors and inhibitors” (Materials Evolution and Development USA, Inc., priority 2000, dated 2010)
